Read-outs that look alike come from different tables or passages of the source.
Experiments:
human p38 kinase alpha = biological target: T1, human p38 kinase alpha (Homo sapiens, UniProt Q16539); test: p38 kinase in vitro assay, phosphorylation of biotinylated PHAS-I with gamma 32P-ATP; assay type: biochemical; conditions: for inhibition at 10 µM / inhibition at 1 µM: read-out: P38 alpha kinase % inhib @ conc.
T1 construct: The coding region of the human p38a cDNA was obtained by PCR-amplification from RNA isolated from the human monocyte cell line THP.1; GST (N); made in house; host or cells: E. coli DH10B
T1 sequence (Q16539 whole entry): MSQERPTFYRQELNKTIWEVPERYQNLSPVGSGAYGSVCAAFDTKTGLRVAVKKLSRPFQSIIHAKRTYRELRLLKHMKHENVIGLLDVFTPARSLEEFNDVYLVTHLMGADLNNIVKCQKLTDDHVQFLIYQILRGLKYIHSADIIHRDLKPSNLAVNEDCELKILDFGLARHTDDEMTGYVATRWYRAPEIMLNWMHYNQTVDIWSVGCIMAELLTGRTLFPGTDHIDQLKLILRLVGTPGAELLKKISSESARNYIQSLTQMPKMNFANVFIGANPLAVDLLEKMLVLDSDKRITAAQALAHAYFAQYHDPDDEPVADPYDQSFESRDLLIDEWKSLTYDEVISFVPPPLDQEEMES
Outline: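 Radiometric filter-capture read-out: streptavidin plates trap biotin-PHAS-I labelled by activated (MKK6) human p38α from γ-32P-ATP. Buffer 25 mM HEPES pH 7.5, 10 mM magnesium acetate, 50 μM cold ATP; reactions 1 h or overnight at 30 °C; inhibitors 10-fold dilutions 100 to 0.001 μM, triplicates, 1% DMSO.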

TNF-α = test: LPS stimulation of TNF production by U937 cells; assay type: cell-based, human; conditions: for U937 Cell % inhib @ conc.: @ 1.0 uM; for inhibition at 1 µM / IC50: Homo sapiens; for inhibition at 1 µM: U-937, @ 1.0 uM, read-out: U937 Cell % inhib @ conc.
Description: Fifty million cells in 100 ml media were induced to terminal monocytic differentiation by 24 hour incubation with 20 ng/ml phorbol 12-myristate 13-acetate (Sigma). The cells were washed by centrifugation (200×g for 5 min) and resuspended in 100 ml fresh medium. After 24-48 hours, the cells were harvested, centrifuged, and resuspended in culture medium at 2 million cells/ml.
Compounds were prepared as 10 mM stock solutions in DMSO and diluted in culture medium to yield a final DMSO concentration of 0.1% in the cell assay. LPS (E coli, 100 ng/ml final concentration) was then added at a volume of 0.02 ml. After 4 hour incubation at 37° C., the amount of TNF-α released in the culture medium was quantitated by ELISA. Inhibitory potency is expressed as IC50 (μM).
In vitro whole cell assay for measuring the ability of the compounds to inhibit TNF production in human U937 cells stimulated with LPS are shown in the column identified as: […]

[1] = read-out: P38 alpha kinase IC50
[2] = U-937, TNF production, LPS-stimulated human U937 cells, read-out: U937 Cell IC50
[3] = p38α in vitro, PHAS-I assay procedure, read-out: p38^1 IC50
[4] = U-937, LPS-stimulated U937 cells, read-out: U937 IC50

SMILES | IC50 (human p38 kinase alpha; [1]) | inhibition at 1 µM (TNF-α) | other results
CC(C)(C)C(=O)NC(Cc1ccccc1)c1[nH]nc(-c2ccc(F)cc2)c1-c1ccncc1 (stereo not drawn) [Example B-0746] | 0.01 µM | – | U937 Cell % inhib @ conc. (TNF-α): 22.0% @ 1.0 uM
C[C@@H](NC(=O)c1cc(Cl)cc(Cl)c1)c1[nH]nc(-c2ccc(F)cc2)c1-c1ccncc1 [Example B-0498] | 0.33 µM | 11% | –
Cc1ccccc1S(=O)(=O)N[C@H](C)c1[nH]nc(-c2ccc(F)cc2)c1-c1ccncc1 [Example B-0469] | 0.056 µM | 92% | –
O=C(NCc1[nH]nc(-c2ccc(F)cc2)c1-c1ccncc1)c1cccc(C(F)(F)F)c1F [Example B-0285] | 4.57 µM | 29% | –
O=S(=O)(NCc1[nH]nc(-c2ccc(F)cc2)c1-c1ccncc1)c1ccccc1Cl [Example B-0240] | 0.2 µM | 70% | –
C=CCNC(=O)N[C@H](C)c1[nH]nc(-c2ccc(F)cc2)c1-c1ccncc1 [Example B-0412] | 0.24 µM | 48% | –
C[C@@H](NC(N)=O)c1[nH]nc(-c2ccc(F)cc2)c1-c1ccncc1 [Example B-0402] | 0.14 µM | – | IC50 (TNF-α; [2]): 1.51 µM
CCCS(=O)(=O)NC(Cc1ccccc1)c1[nH]nc(-c2ccc(F)cc2)c1-c1ccncc1 (stereo not drawn) [Example B-0760] | 0.01 µM | – | U937 Cell % inhib @ conc. (TNF-α): 13.0% @ 1.0 uM
C[C@@H](NS(=O)(=O)c1cc(Cl)c(Cl)s1)c1[nH]nc(-c2ccc(F)cc2)c1-c1ccncc1 [Example B-0452] | 0.7 µM | 75% | –
O=C(NCc1[nH]nc(-c2ccc(F)cc2)c1-c1ccncc1)[C@H]1CCCN1C(=O)OCC1c2ccccc2-c2ccccc21 [Example B-0197] | 2 µM | 14% | –
O=C(NCc1[nH]nc(-c2ccc(F)cc2)c1-c1ccncc1)Nc1cc(Cl)cc(Cl)c1 [Example B-0164] | – | 20% | inhibition at 10 µM (human p38 kinase alpha): 37%
Cc1ccc(S(C)(=O)=O)cc1S(=O)(=O)NCc1[nH]nc(-c2ccc(F)cc2)c1-c1ccncc1 [Example B-0260] | 0.56 µM | 23% | –
O=C(NCc1[nH]nc(-c2ccc(F)cc2)c1-c1ccncc1)Nc1ccccc1-c1ccccc1 [Example B-0181] | – | 2% | inhibition at 1 µM (human p38 kinase alpha): 5%
NC(=O)NCc1[nH]nc(-c2ccc(F)cc2)c1-c1ccncc1 [Example B-0214] | 0.16 µM | 50% | –
N#Cc1cccc(C(=O)NCc2[nH]nc(-c3ccc(F)cc3)c2-c2ccncc2)c1 [Example B-0274] | 2.68 µM | 25% | –
CC(C)C(=O)N[C@H](C)c1[nH]nc(-c2ccc(F)cc2)c1-c1ccncc1 [Example B-0355] | 0.75 µM | 40% | –
CCCCOc1ccc(S(=O)(=O)NCc2[nH]nc(-c3ccc(F)cc3)c2-c2ccncc2)cc1 [Example B-0129] | – | 31% | inhibition at 1 µM (human p38 kinase alpha): 51%
C[C@@H](NS(=O)(=O)c1ccccc1C#N)c1[nH]nc(-c2ccc(F)cc2)c1-c1ccncc1 [Example B-0450] | 0.26 µM | 81% | –
O=C(NCc1[nH]nc(-c2ccc(F)cc2)c1-c1ccncc1)c1ccc(C(F)(F)F)cc1 [Example B-0302] | 4.02 µM | 24% | –
CSc1cccc(NC(=O)NCc2[nH]nc(-c3ccc(F)cc3)c2-c2ccncc2)c1 [Example B-0145] | – | 12% | inhibition at 10 µM (human p38 kinase alpha): 54%
O=S(=O)(NCc1[nH]nc(-c2ccc(F)cc2)c1-c1ccncc1)c1cc(Cl)cc(Cl)c1O [Example B-0103] | – | 6% | inhibition at 1 µM (human p38 kinase alpha): 71%
O=S(=O)(NCc1[nH]nc(-c2ccc(F)cc2)c1-c1ccncc1)c1cc(S(=O)(=O)c2ccccc2)cs1 [Example B-0259] | 0.35 µM | 58% | –
C[C@@H](NS(=O)(=O)c1ccc(Cl)c(Cl)c1)c1[nH]nc(-c2ccc(F)cc2)c1-c1ccncc1 [Example B-0465] | 0.084 µM | 98% | –
COc1ccc(Cl)cc1S(=O)(=O)N[C@H](C)c1[nH]nc(-c2ccc(F)cc2)c1-c1ccncc1 [Example B-0478] | 0.034 µM | 87% | –
CCOC(=O)CCCC(=O)NCc1[nH]nc(-c2ccc(F)cc2)c1-c1ccncc1 [Example B-0096] | – | 22% | inhibition at 1 µM (human p38 kinase alpha): 91%
O=S(=O)(NCc1[nH]nc(-c2ccc(F)cc2)c1-c1ccncc1)c1cccc2ccccc12 [Example B-0111] | – | – | inhibition at 1 µM (human p38 kinase alpha): 57%; IC50 (TNF-α; [2]): > 1 µM

SMILES | IC50 (human p38 kinase alpha; [1]) | inhibition at 1 µM (TNF-α) | other results
CCCCCCCC(=O)NCc1[nH]nc(-c2ccc(F)cc2)c1-c1ccncc1 [Example B-0064] | – | 4% | inhibition at 1 µM (human p38 kinase alpha): 90%
O=C(NCc1[nH]nc(-c2ccc(F)cc2)c1-c1ccncc1)c1cc(C(F)(F)F)ccc1F [Example B-0281] | 7.37 µM | 24% | –
C[C@@H](NS(=O)(=O)c1cn(C)cn1)c1[nH]nc(-c2ccc(F)cc2)c1-c1ccncc1 [Example B-0486] | 0.24 µM | 80% | –
O=C(NCc1[nH]nc(-c2ccc(F)cc2)c1-c1ccncc1)c1cccc(Cl)c1Cl [Example B-0279] | 1.39 µM | 33% | –
COc1ccc(CC(=O)N[C@H](C)c2[nH]nc(-c3ccc(F)cc3)c2-c2ccncc2)cc1 [Example B-0372] | 0.35 µM | 29% | –
CC(C)C(=O)NCc1[nH]nc(-c2ccc(F)cc2)c1-c1ccncc1 [Example B-0010] | 0.52 µM | – | IC50 (TNF-α; [2]): 0.65 µM
Cc1ccc(F)cc1S(=O)(=O)NCc1[nH]nc(-c2ccc(F)cc2)c1-c1ccncc1 [Example B-0232] | 0.048 µM | 24% | –
O=C(NCc1[nH]nc(-c2ccc(F)cc2)c1-c1ccncc1)c1cc(F)c(F)cc1F [Example B-0296] | 8.03 µM | 36% | –
CC(=O)Nc1nc(C)c(S(=O)(=O)NCc2[nH]nc(-c3ccc(F)cc3)c2-c2ccncc2)s1 [Example B-0222] | 0.4 µM | 29% | –
O=C(NCc1[nH]nc(-c2ccc(F)cc2)c1-c1ccncc1)Nc1ccc(C(F)(F)F)cc1 [Example B-0163] | – | 10% | inhibition at 10 µM (human p38 kinase alpha): 20%
O=C(NCc1[nH]nc(-c2ccc(F)cc2)c1-c1ccncc1)c1ccccc1Br [Example B-0301] | 0.19 µM | 50% | –
O=C(NCc1[nH]nc(-c2ccc(F)cc2)c1-c1ccncc1)c1cc2ccccc2s1 [Example B-0271] | 7.55 µM | 12% | –
Cc1ccc(C(=O)NCc2[nH]nc(-c3ccc(F)cc3)c2-c2ccncc2)cc1 [Example B-0269] | 9.81 µM | 19% | –
O=C(NCc1[nH]nc(-c2ccc(F)cc2)c1-c1ccncc1)c1ccc(Cl)c(Cl)c1 [Example B-0071] | – | 31% | inhibition at 1 µM (human p38 kinase alpha): 86%
O=C(NCc1[nH]nc(-c2ccc(F)cc2)c1-c1ccncc1)C1CCC1 [Example B-0066] | – | 28% | inhibition at 1 µM (human p38 kinase alpha): 94%
C#CCNc1[nH]nc(-c2ccc(F)cc2)c1-c1ccncc1 [Example A-288, 5-(4-fluorophenyl)-N-2-propynyl-4-(4-pyridinyl)-1H-pyrazol-3-amine] | – | – | IC50 (human p38 kinase alpha; [3]): 0.017 µM; IC50 (TNF-α; [4]): 0.3 µM
O=C(NCc1[nH]nc(-c2ccc(F)cc2)c1-c1ccncc1)c1ccccn1 [Example B-0198] | 1.2 µM | 2% | –
O=C(NCc1[nH]nc(-c2ccc(F)cc2)c1-c1ccncc1)c1cccc(Br)c1 [Example B-0073] | – | 24% | inhibition at 1 µM (human p38 kinase alpha): 91%
COc1cc(C(=O)NCc2[nH]nc(-c3ccc(F)cc3)c2-c2ccncc2)cc(OC)c1OC [Example B-0085] | – | 21% | inhibition at 1 µM (human p38 kinase alpha): 83%
O=C(NCc1[nH]nc(-c2ccc(F)cc2)c1-c1ccncc1)c1ccc(Cl)cc1Cl [Example B-0291] | 1.33 µM | 20% | –
COC(=O)c1ccccc1S(=O)(=O)NCc1[nH]nc(-c2ccc(F)cc2)c1-c1ccncc1 [Example B-0108] | – | – | inhibition at 1 µM (human p38 kinase alpha): 61%; IC50 (TNF-α; [2]): 4.85 µM
C[C@@H](NS(C)(=O)=O)c1[nH]nc(-c2ccc(F)cc2)c1-c1ccncc1 [Example B-0396] | 0.097 µM | – | IC50 (TNF-α; [2]): 0.44 µM
Cc1cccc(C)c1NC(=O)N[C@H](C)c1[nH]nc(-c2ccc(F)cc2)c1-c1ccncc1 [Example B-0411] | 0.62 µM | 50% | –
CCN(CC)CCn1cc(-c2ccnc(F)c2)c(-c2ccc(F)cc2)n1 [Example A-278, N,N-diethyl-3-(4-fluorophenyl)-4-(2-fluoro-4-pyridinyl)-1H-pyrazole-1-ethanamine] | – | – | IC50 (human p38 kinase alpha; [3]): 0.285 µM; IC50 (TNF-α; [4]): 2.3 µM
CC(C)OC(=O)NCc1[nH]nc(-c2ccc(F)cc2)c1-c1ccncc1 [Example B-0205] | 0.096 µM | 54% | –
